Legend:
Type in all cases: in vivo
[1] = system: Erysiphe graminis tritici (powdery mildew); test: Greenhouse Test 1, foliar spray fungicide screen (POWD MDEW), host wheat; settings: disease control rating, 400 ppm (+++ at 100 ppm)
[2] = system: Pyricularia oryzae (rice blast); settings: disease control rating, foliar spray, host rice; 400 ppm (+++ at 100 ppm)
[3] = system: Puccinia recondita tritici (leaf rust); test: Greenhouse Test 1, foliar spray fungicide screen (LEAF RUST), host wheat; settings: disease control rating, 400 ppm (+++ at 100 ppm)
[4] = system: Botrytis cinerea (gray mold); test: Greenhouse Test 1, foliar spray fungicide screen (GRAY MOLD), host grape berries; settings: disease control rating, 400 ppm (+++ at 100 ppm)
[5] = system: Pseudoperonospora cubensis (downy mildew); test: Greenhouse Test 1, foliar spray fungicide screen (DOWN MDEW), host squash; settings: disease control rating, 400 ppm (+++ at 100 ppm)
[6] = system: Southern corn rootworm (Diabrotica undecimpuctata howardi Barber); test: Mite/insect screen, soil treatment (CRW); settings: Diabrotica, percent mortality, soil treatment, read-out: CRW RESULTS %; for mortality at 12 ppm: CRW rate 12.00 ppm; for mortality at 24 ppm: CRW rate 24.00 ppm
Procedure, shortened: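 Five 2–3 instar larvae were placed on dry sandy soil with a presoaked corn seed after the soil had received 1 mL of compound solution and dried 6–12 h; cups were kept capped at 23°C. Mortality (%) and phytotoxicity were read after standard exposure. Formulation: acetone/alcohol with emulsifiers, water-diluted.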

[7] = system: southern armyworm (Spodopetra eridania Cramer); test: Mite/insect screen, sprayed squash leaves (SAW); settings: Spodoptera eridania, percent mortality, read-out: SAW RESULTS %; for mortality at 200 ppm: spray rate 200 ppm; for mortality at 400 ppm: spray rate 400 ppm
Procedure, shortened: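 Water-diluted formulations of each compound (acetone/alcohol 50:50 with 23 g/L and 13 g/L emulsifier blends) are sprayed over both leaf faces to runoff. After a standard exposure period, percent kill and phytotoxicity are recorded.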

[8] = system: Twospotted spider mites (Tetranychus urticae Koch); test: Mite/insect screen, sprayed squash cotyledons (SM); settings: Tetranychus urticae, percent mortality, read-out: SM RESULTS %; for mortality at 200 ppm: spray rate 200 ppm; for mortality at 400 ppm: spray rate 400 ppm
Procedure, shortened: (§1)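 Mortality and phytotoxicity read after standard exposure periods on sprayed squash: cotyledons for melon aphids and twospotted spider mites, excised leaves placed with southern armyworm larvae. Spray solutions were water dilutions of acetone/alcohol stocks containing TOXIMUL R and S emulsifiers, applied to runoff at 10 psi and air-dried one hour.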

[9] = system: melon aphids (Aphis gossypii Glover); test: Mite/insect screen, sprayed squash cotyledons (MA); settings: Aphis gossypii, percent mortality, read-out: MA RESULTS %; for mortality at 200 ppm: spray rate 200 ppm; for mortality at 400 ppm: spray rate 400 ppm
Procedure, shortened: as §1

| Compound | POWD MDEW [1] | RICE BLAST [2] | LEAF RUST [3] | GRAY MOLD [4] | DOWN MDEW [5] | mortality at 12 ppm [6] | mortality at 24 ppm [6] | mortality at 200 ppm [7] | mortality at 400 ppm [7] | mortality at 200 ppm [8] | mortality at 400 ppm [8] | mortality at 200 ppm [9] | mortality at 400 ppm [9] |
| --- | --- | --- | --- | --- | --- | --- | --- | --- | --- | --- | --- | --- | --- |
| C=CC(CCOc1ncnc2ccccc12)CCc1ccccc1 (centres unmarked) [Example 130, 4-[3-ethenyl-5-phenyl-pentyloxy]quinazoline] | + (+ = 20-89% control at 400 ppm) | - (- = 0-19% control at 400 ppm) | - (- = 0-19% control at 400 ppm) | - (- = 0-19% control at 400 ppm) | - (- = 0-19% control at 400 ppm) | 0% | 0% | 0% | 0% | 80% | 70% | 80% | 100% |
| CCOc1ccc(CCOc2ncnc3ccccc23)cc1 [Example 15, 4-[2-(4-ethoxyphenyl)ethoxy]quinazoline] | +++ (+++ = 90-100% control at 100 ppm) | +++ (+++ = 90-100% control at 100 ppm) | +++ (+++ = 90-100% control at 100 ppm) | - (- = 0-19% control at 400 ppm) | +++ (+++ = 90-100% control at 100 ppm) |  | 0% |  | 0% |  | 0% |  | 0% |
| Cc1ccc(CCOc2ncnc3c(F)cccc23)cc1 [Example 99] | +++ (+++ = 90-100% control at 100 ppm) | - (- = 0-19% control at 400 ppm) | +++ (+++ = 90-100% control at 100 ppm) | - (- = 0-19% control at 400 ppm) | +++ (+++ = 90-100% control at 100 ppm) | 0% | 0% | 0% | 0% | 100% | 0% | 100% | 0% |
| N#Cc1ccc(CCOc2ncnc3ccccc23)cc1 [Example 183, 4-[2-[(4-quinazolinyl)oxy]ethyl]benzonitrile] | + (+ = 20-89% control at 400 ppm) | ++ (++ = 90-100% control at 400 ppm) | +++ (+++ = 90-100% control at 100 ppm) | - (- = 0-19% control at 400 ppm) | + (+ = 20-89% control at 400 ppm) | 0% | 80% | 0% | 0% | 0% | 0% | 0% | 0% |
| OC(CNc1ncnc2ccccc12)c1ccc2ccccc2c1 (stereo not drawn) [Example 105, α-[(4-quinazolinylamino)methyl]-2-naphthalenemethanol] | - (- = 0-19% control at 400 ppm) | + (+ = 20-89% control at 400 ppm) | ++ (++ = 90-100% control at 400 ppm) | - (- = 0-19% control at 400 ppm) | - (- = 0-19% control at 400 ppm) |  | 0% |  | 0% |  | 0% |  | 0% |
| CC(C)(C)c1ccc(CCCc2ncnc3ccccc23)cc1 [Example 127, 4-[3-[4-(1,1-dimethylethyl)phenyl]propyl]quinazoline] | +++ (+++ = 90-100% control at 100 ppm) | +++ (+++ = 90-100% control at 100 ppm) | ++ (++ = 90-100% control at 400 ppm) | - (- = 0-19% control at 400 ppm) | +++ (+++ = 90-100% control at 100 ppm) | 0% | 0% | 0% | 0% | 100% | 100% | 100% | 100% |
| c1ccc(C(COc2ncnc3ccccc23)c2ccccc2)cc1 [Example 67, 4-(2,2-diphenylethoxy)quinazoline] | + (+ = 20-89% control at 400 ppm) | + (+ = 20-89% control at 400 ppm) | - (- = 0-19% control at 400 ppm) | - (- = 0-19% control at 400 ppm) | ++ (++ = 90-100% control at 400 ppm) |  | 0% |  | 0% |  | 60% |  | 30% |
| FC(F)(F)c1ccccc1CCOc1ncnc2ccccc12 [Example 47, 4-[2-[2-(trifluoromethyl)phenyl]ethoxy]quinazoline] | +++ (+++ = 90-100% control at 100 ppm) | +++ (+++ = 90-100% control at 100 ppm) | +++ (+++ = 90-100% control at 100 ppm) | - (- = 0-19% control at 400 ppm) | +++ (+++ = 90-100% control at 100 ppm) |  | 0% |  | 0% |  | 0% |  | 0% |
| Fc1ccc(-c2ccc(CCOc3ncnc4ccccc34)cc2)cc1 [Example 144, 4-[2-(4'-fluoro-1,1'-biphenyl)-4-ylethoxy]quinazoline] | +++ (+++ = 90-100% control at 100 ppm) | +++ (+++ = 90-100% control at 100 ppm) | +++ (+++ = 90-100% control at 100 ppm) | - (- = 0-19% control at 400 ppm) | +++ (+++ = 90-100% control at 100 ppm) | 100% | 40% | 40% | 0% |  | 100% | 60% | 100% |
| FC(F)(F)c1cc(CCOc2ncnc3ccccc23)cc(C(F)(F)F)c1 [Example 128, 4-[2-[3,5-di(trifluoromethyl)phenyl]ethoxy]quinazoline] | ++ (++ = 90-100% control at 400 ppm) | + (+ = 20-89% control at 400 ppm) | + (+ = 20-89% control at 400 ppm) | - (- = 0-19% control at 400 ppm) | + (+ = 20-89% control at 400 ppm) | 0% | 0% | 0% | 0% | 0% | 0% | 0% | 0% |
| FC(F)(F)c1cccc(CCOc2ncnc3ccccc23)c1 [Example 51, 4-[2-[3-(trifluoromethyl)phenyl]ethoxy]quinazoline] | ++ (++ = 90-100% control at 400 ppm) | +++ (+++ = 90-100% control at 100 ppm) | ++ (++ = 90-100% control at 400 ppm) | - (- = 0-19% control at 400 ppm) | +++ (+++ = 90-100% control at 100 ppm) |  | 0% |  | 0% |  | 0% |  | 0% |
| CC(C)(C)c1ccc(CCOc2ncnc3cc(Cl)ccc23)cc1 [Example 136, 7-chloro-4-[2-[4-(1,1-dimethylethyl)phenyl]ethoxy]quinazoline] | - (- = 0-19% control at 400 ppm) | - (- = 0-19% control at 400 ppm) | - (- = 0-19% control at 400 ppm) | - (- = 0-19% control at 400 ppm) | - (- = 0-19% control at 400 ppm) | 0% | 0% | 100% | 0% | 0% | 0% | 0% | 0% |
| CC(C)c1ccc(CCNc2ncnc3ccc(Br)cc23)cc1 [Example 79, 6-bromo-N-[2-[4-(i-propyl)phenyl]ethyl]-4-quinazolinamine] | + (+ = 20-89% control at 400 ppm) | +++ (+++ = 90-100% control at 100 ppm) | ++ (++ = 90-100% control at 400 ppm) | - (- = 0-19% control at 400 ppm) | +++ (+++ = 90-100% control at 100 ppm) | 0% | 0% | 0% | 0% | 50% | 0% | 50% | 0% |
| Clc1ccc(CCNc2ncnc3ccc(Br)cc23)cc1 [Example 37, N-[2-(4-chlorophenyl)ethyl]-6-bromo-4-quinazolinamine] | - (- = 0-19% control at 400 ppm) | - (- = 0-19% control at 400 ppm) | - (- = 0-19% control at 400 ppm) | - (- = 0-19% control at 400 ppm) | - (- = 0-19% control at 400 ppm) | 0% | 0% | 0% | 0% | 0% | 0% | 0% | 0% |

— patent EP0326329B1, “Quinazoline derivatives useful as insecticides” (Dow AgroSciences LLC, priority 1988, dated 1989)
